No end group written: not given here.
B1: Secretory leukocyte protease inhibitor (protein, UniProt P03973 26-132, looked up)
Antileukoproteinase: SGKSFKAGVCPPKKSAQCLRYKKPECQSDWQCPGKKRCCPDTCGIKCLDPVDTPNPTRRKPGKCPVTYGQCLMLNPPNFCEMDGQCKRDLKCCMGMCGKSCVSPVKA
notes: cationic protein, source human

What was measured:
S. aureus 31 = experiment: bacterial adhesion (total counts) and viable counts on coated etafilcon A lenses; format: cell-based, Staphylococcus aureus; parameters: key to Reduction v. control* / Reduction v. total**: “—” indicates no reduction in adhesion; details: for Reduction v. control* / Reduction v. total**: strain Saur 31; for Reduction v. control*: coated etafilcon A lens compared to adhesion control lens not coated; for Reduction v. total**: compared to the number of total bacterial cells adhered to coated lens (growth of adhered bacteria)
Method: (§1) For conducting total counts, etafilcon A lenses were removed from the manufacturers vials, washed three times in 1 ml PBS and then coated with various concentrations of cationic proteins/peptides overnight at 37° C. either individually or in combination. After incubation, the lenses were washed three times in PBS and 0.5 ml of 1×10^8 bacterial cells/ml was added to the lenses. After incubation at ambient temperature for 10 min, the lenses were washed three times in PBS to remove non-adherent or loosely adherent bacteria and stained with crystal violet for 1 min. The number of cells per lens was examined under the microscope. Five grids (0.005625 mm^2) per lens were counted and triplicate lenses for each treatment were assayed.
(§2) For conducting viable counts, etafilcon A lenses were removed from the manufacturers vials, washed three times in 1 ml PBS and then coated with various concentrations of cationic proteins/peptides overnight at 37° C. (either individually or in combination). After incubation, the lenses were washed three times in PBS and 0.5 ml of 1×10^8 bacterial cells/ml was added to the lenses. After incubation at ambient temperature for 10 min, the lenses were washed three times in PBS to remove non-adherent or loosely adherent bacteria. Lenses were then homogenized using 1 ml PBS and a small magnetic stirring bar (octagonal cross-section, 0.5″×0.125″) and stirred at maximum speed for one hour which was sufficient for lens disintegration. Serial dilutions were then made according to the technique of Miles and Misra and aliquots (20 μL) plated out on nutrient agar. After incubation overnight at 37° C., viable bacteria were determined and results expressed as colony forming units/mm^2 after calculation of the surface area of the lens (approximately 310 mm^2).
(§3) The lenses were incubated in concentrations of cationic proteins/peptides that were either effective in solution or the highest concentration available if there was no effect in solution. After rinsing, bacteria were added and numbers of cells analyzed as the total cells per mm^2 of the lens or the number of viable cells per mm^2 of the lens.

[1] = tested on: Pseudomonas aeruginosa 6294; experiment: growth of bacteria in solution with cationic proteins/peptides (slow growing in PBS, rapid growing in TSB); format: cell-based
Method: (§4) To assess the effect of the cationic proteins/peptides in solution against rapid growing bacterial cells, bacteria were cultured in Trypticase soy broth (“TSB”) overnight at 35° C. Aliquots (20 μl) of this cell suspension were then added to fresh TSB (10 ml). Different concentrations of the cationic proteins/peptides were added to the fresh broth and incubated for up to 48 h at 35° C. Samples were taken at different time points and the optical density at 660 nm measured as a measure of changes in bacterial numbers was measured.
(§5) To assess the effect of the cationic proteins/peptides in solution against slow growing bacterial cells, cells were grown as previously in TSB. The cells were then harvested by centrifugation and washed in phosphate buffered saline (PBS; NaCl 8 g/l; KCl 0.2 g/l; Na2HPO4 1.15 g/l; KH2PO4 0.2 g/l). The cells were then re-suspended to OD 0.1 (unless otherwise stated) at 660 nm in PBS, different concentrations of cationic proteins/peptides were added and incubated for up to 48 h at 35° C. Samples were taken a different points and numbers of bacteria analyzed using the Miles and Misra technique (i.e. numbers that are viable after plating dilutions onto nutrient agar plates).
(§6) The results obtained in solution for all cationic proteins and peptides studied are shown on Table 3. Most protein/peptides were screened against only P. aeruginosa 6294 and S. aureus 31.
(§7) In Table 3, slow growing cells are those re-suspended in PBS with cationic protein/peptide and rapid growing are those re-suspended in TSB plus cationic protein/peptide. The numbers in μg/ml are in concentration showing peak activity. A “−” sign indicates no reduction in bacterial growth, a “+” sign indicates a 1 to 50% reduction in growth, a “++” sign indicates a 51 to 89% reduction in growth, a “+++” sign indicates a 90 to 98% reduction in growth a “++++” sign indicates a greater than 98% reduction in growth.

P. aeruginosa 6294 = experiment: bacterial adhesion (total counts) and viable counts on coated etafilcon A lenses; format: cell-based, Pseudomonas aeruginosa; parameters: key to Reduction v. control* / Reduction v. total**: “—” indicates no reduction in adhesion; details: for Reduction v. control* / Reduction v. total**: strain 6294
Method: as §1, §2, §3

[2] = tested on: Staphylococcus aureus Saur31; experiment: growth of bacteria in solution with cationic proteins/peptides (slow growing in PBS, rapid growing in TSB); format: cell-based; details: Saur 31
Method: as §4, §5, §6, §7

Serratia marcesens Smar5 = experiment: as above; format: cell-based; parameters: key: A “−” sign indicates no reduction in bacterial growth; —: A “−” sign indicates no reduction in bacterial growth; a “+” sign indicates a 1 to 50% reduction in growth; a “++” sign indicates a 51 to 89% reduction in growth; a “+++” sign indicates a 90 to 98% reduction in growth; a “++++” sign indicates a greater than 98% reduction in growth; details: Smar 5
Method: as §4, §5, §6, §7

[3] = tested on: Staphylococcus intermedius Sint 2; experiment: as above; format: cell-based; parameters: key: A “−” sign indicates no reduction in bacterial growth; —: A “−” sign indicates no reduction in bacterial growth; a “+” sign indicates a 1 to 50% reduction in growth; a “++” sign indicates a 51 to 89% reduction in growth; a “+++” sign indicates a 90 to 98% reduction in growth; a “++++” sign indicates a greater than 98% reduction in growth
Method: as §4, §5, §6, §7

[4] = tested on: Pseudomonas aeruginosa 6206; experiment: as above; format: cell-based; parameters: key: A “−” sign indicates no reduction in bacterial growth; —: A “−” sign indicates no reduction in bacterial growth; a “+” sign indicates a 1 to 50% reduction in growth; a “++” sign indicates a 51 to 89% reduction in growth; a “+++” sign indicates a 90 to 98% reduction in growth; a “++++” sign indicates a greater than 98% reduction in growth
Method: as §4, §5, §6, §7

[5] = tested on: gram-positive and gram-negative bacteria; experiment: growth of bacteria in solution (summary statement); format: cell-based; details: in words
Method: as §4, §5, §6

bacteria = experiment: surface coatings: adherence and growth of bacteria on the device (summary statements); format: cell-based; details: coated lenses, in words; for viability of adhered cells: compared to the cells adhered to the uncoated lens
Method: as §1, §2, §3

[6] = tested on: Pseudomonas aeruginosa Paer1; experiment: growth of bacteria in solution with cationic proteins/peptides (slow growing in PBS, rapid growing in TSB); format: cell-based; details: Paer 1; 24 h, 15 μg/ml slow growing
Method: as §4, §5, §6, §7

[7] = coated etafilcon A lens compared to adhesion control lens not coated
[8] = compared to the number of total bacterial cells adhered to coated lens (growth of adhered bacteria)
[9] = slow growing (PBS), 125-1000 μg/ml

| Molecule | Reduction v. control* (S. aureus 31) | Reduction v. total** (S. aureus 31) | Reduction v. control* (P. aeruginosa 6294; [7]) | Reduction v. total** (P. aeruginosa 6294; [8]) | further results |
| --- | --- | --- | --- | --- | --- |
| Magainin 2 | — | — | — | — | reduction in bacterial growth ([1]; 24 h, 400 μg/ml, slow growing): +++(24 h, (a “+++” sign indicates a 90 to 98% reduction in growth) |
| β Defensin 1 (DHYNCVSSGGQCLYSACPIFTKIQGTCYRGKAKCCK; ends and bridges not checked; cysteine pairing not given here; UniProt P60022 33-68, looked up) [cationic peptide, source human] | — | — | — | — | reduction in bacterial growth ([1]; 24h, 60 μg/ml): ++(24h, (a “++” sign indicates a 51 to 89% reduction in growth) |
| Magainin 1 (GIGKFLHSAGKFGKAFVGEIMKS; Magainin-1; UniProt P11006 37-59, looked up) [cationic peptide, source frog] | — | — | — | — |  |
| Melittin-1-13 AA | — | — | — | — | reduction in bacterial growth ([2]; 48h, 24h, 1000 μg/ml): ++(48h, (a “++” sign indicates a 51 to 89% reduction in growth); reduction in bacterial growth ([1]; 24h, 1000 μg/ml): ++(24h, (a “++” sign indicates a 51 to 89% reduction in growth) |
| Defensin HNP-1 | — | — | — | — | reduction in bacterial growth ([1]; 2 μg/ml): +(2 μg/ml) (a “+” sign indicates a 1 to 50% reduction in growth) |
| Transferrin |  |  |  |  | Reduction v. control* (P. aeruginosa 6294; 125 μg/ml, compared to adhesion control lens not coated): —; Reduction v. total** (P. aeruginosa 6294; 125 μg/ml, compared to total bacterial cells adhered to coated lens): — |
| Cecropin P1 | — | — | — | — |  |
| Protamine | — | — | 80% | 80% | reduction in bacterial growth (Serratia marcesens Smar5; 1000 μg/ml slow growing): ++++(1000 (a “++++” sign indicates a greater than 98% reduction in growth); reduction in bacterial growth (Serratia marcesens Smar5; <1000 μg/ml slow growing): −(<1000; reduction in bacterial growth ([3]; rapid growing (TSB), 125-1000 μg/ml): −(rapid; reduction in bacterial growth [3, 9]: ++++ (slow (a “++++” sign indicates a greater than 98% reduction in growth); reduction in bacterial growth [4, 9]: ++++(slow (a “++++” sign indicates a greater than 98% reduction in growth); preventing the growth of gram-positive and gram-negative bacteria in solution [5]: most efficacious; viability of the cells on the coated lenses (P. aeruginosa 6294; P. aeruginosa 6294, in words): reduced the viability; adhesion of P. aeruginosa 6294 to the lenses (P. aeruginosa 6294; coated lenses, in words): significantly reduced the adhesion |
| Nisin | — | 50% |  |  | reduction in bacterial growth ([1]; 2 μg/ml): ++(2 μg/ml) (a “++” sign indicates a 51 to 89% reduction in growth); viability of adhered cells (bacteria): significant reduction in the viability; total adhesion of bacteria (bacteria): did not reduce the total adhesion |
| Cecropin A | — | — | — | 93% | viability of adhered cells (bacteria): significant reduction in the viability; total adhesion of bacteria (bacteria): did not reduce the total adhesion |
| Melittin | 60% |  | 70% |  | initial adhesion of S. aureus 31 (S. aureus 31; coated lenses, in words): reduced initial adhesion; reduction in bacterial growth (Serratia marcesens Smar5; growth state not given, 15 μg/ml): —; reduction in bacterial growth ([3]; 24 h, 15 μg/ml rapid growing): ++++(24 h, (a “++++” sign indicates a greater than 98% reduction in growth); reduction in bacterial growth ([3]; 24 h, 15 μg/ml slow growing): ++++(24 h, (a “++++” sign indicates a greater than 98% reduction in growth); reduction in bacterial growth [6]: ++++(24 h, (a “++++” sign indicates a greater than 98% reduction in growth); reduction in bacterial growth ([2]; 15 μg/ml rapid growing): ++++ (a “++++” sign indicates a greater than 98% reduction in growth); reduction in bacterial growth ([2]; 24 h, 15 μg/ml slow growing): ++++(24 h, (a “++++” sign indicates a greater than 98% reduction in growth); reduction in bacterial growth ([1]; 24 h, 15 μg/ml slow growing): ++(24 h, (a “++” sign indicates a 51 to 89% reduction in growth); preventing the growth of gram-positive and gram-negative bacteria in solution [5]: most efficacious |
| B1 | — | — | — | — | reduction in bacterial growth ([4]; growth state not given, 10-100 μg/ml): — |
